Converted amounts (≈) assume the structure as drawn.
Tests used:
Format in all cases: functional
Campylobacter jejuni = test: Antibacterial activity against Campylobacter jejuni NCTC 11168 assessed as growth inhibition by broth dilution method
Listeria monocytogenes = test: Antibacterial activity against Listeria monocytogenes ATCC […] assessed as growth inhibition by broth dilution method
Enterococcus faecium = test: Antibacterial activity against Enterococcus faecium ATCC 19434 assessed as growth inhibition by broth dilution method
Enterococcus faecalis = test: Antibacterial activity against Enterococcus faecalis ATCC 29212 assessed as growth inhibition by broth dilution method
Klebsiella pneumoniae = test: Antibacterial activity against Klebsiella pneumoniae ATCC 13883 assessed as growth inhibition by broth dilution method
Pseudomonas aeruginosa = test: Antibacterial activity against Pseudomonas aeruginosa ATCC 27853 assessed as growth inhibition by broth dilution method
Salmonella enterica = test: Antibacterial activity against Salmonella enterica ATCC 13311 assessed as growth inhibition by broth dilution method
Staphylococcus aureus = test: Antibacterial activity against Staphylococcus aureus ATCC 29213 assessed as growth inhibition by broth dilution method
Escherichia coli = test: Antibacterial activity against Escherichia coli ATCC 25922 assessed as growth inhibition by broth dilution method
Acinetobacter baumannii = test: Antibacterial activity against Acinetobacter baumannii ATCC 19606 assessed as growth inhibition by broth dilution method

Compound	MIC (Campylobacter jejuni)	MIC (Listeria monocytogenes)	MIC (Enterococcus faecium)	MIC (Enterococcus faecalis)	MIC (Klebsiella pneumoniae)	MIC (Pseudomonas aeruginosa)	MIC (Salmonella enterica)	MIC (Staphylococcus aureus)	MIC (Escherichia coli)	MIC (Acinetobacter baumannii)
CC[C@@H](C)CC[C@H](O)CC(=O)N[C@@H](C(=O)N[C@H](CCN)C(=O)NCC(=O)N[C@H](CO)C(=O)N[C@H](Cc1c[nH]c2ccccc12)C(=O)N[C@@H](CO)C(=O)N[C@@H](CCN)C(=O)N[C@H](CCN)C(=O)N[C@@H](Cc1ccccc1)C(=O)N[C@@H](CCC(=O)O)C(=O)N[C@H](C(=O)N[C@@H](C(=O)N[C@@H](C)C(=O)O)[C@@H](C)CC)C(C)C)C(C)C	3.13 µg/mL (≈ 2.02 µM)	> 100 µg/mL	> 100 µg/mL	> 100 µg/mL	12.5 µg/mL (≈ 8.06 µM)	100 µg/mL (≈ 64.5 µM)	25 µg/mL (≈ 16.1 µM)	> 100 µg/mL	12.5 µg/mL (≈ 8.06 µM)	50 µg/mL (≈ 32.2 µM)
CC[C@H](C)[C@@H](NC(=O)[C@@H](NC(=O)[C@H](CCC(=O)O)NC(=O)[C@H](Cc1ccccc1)NC(=O)[C@@H](CCN)NC(=O)[C@H](CCN)NC(=O)[C@H](CO)NC(=O)[C@@H](Cc1c[nH]c2ccccc12)NC(=O)[C@@H](CO)NC(=O)CNC(=O)[C@@H](CCN)NC(=O)[C@H](NC(C)=O)C(C)C)C(C)C)C(=O)N[C@@H](C)C(=O)O	100 µg/mL (≈ 69.6 µM)	> 100 µg/mL	> 100 µg/mL	> 100 µg/mL	50 µg/mL (≈ 34.8 µM)	> 100 µg/mL	100 µg/mL (≈ 69.6 µM)	> 100 µg/mL	50 µg/mL (≈ 34.8 µM)	> 100 µg/mL
CCCCCC(=O)N[C@@H](C(=O)N[C@H](CCN)C(=O)NCC(=O)N[C@H](CO)C(=O)N[C@H](Cc1c[nH]c2ccccc12)C(=O)N[C@@H](CO)C(=O)N[C@@H](CCN)C(=O)N[C@H](CCN)C(=O)N[C@@H](Cc1ccccc1)C(=O)N[C@@H](CCC(=O)O)C(=O)N[C@H](C(=O)N[C@@H](C(=O)N[C@@H](C)C(=O)O)[C@@H](C)CC)C(C)C)C(C)C	3.13 µg/mL (≈ 2.1 µM)	100 µg/mL (≈ 67 µM)	> 100 µg/mL	> 100 µg/mL	3.13 µg/mL (≈ 2.1 µM)	50 µg/mL (≈ 33.5 µM)	6.25 µg/mL (≈ 4.19 µM)	> 100 µg/mL	3.13 µg/mL (≈ 2.1 µM)	25 µg/mL (≈ 16.7 µM)
CCCCCCCCCCCCCC(=O)N[C@@H](C(=O)N[C@H](CCN)C(=O)NCC(=O)N[C@H](CO)C(=O)N[C@H](Cc1c[nH]c2ccccc12)C(=O)N[C@@H](CO)C(=O)N[C@@H](CCN)C(=O)N[C@H](CCN)C(=O)N[C@@H](Cc1ccccc1)C(=O)N[C@@H](CCC(=O)O)C(=O)N[C@H](C(=O)N[C@@H](C(=O)N[C@@H](C)C(=O)O)[C@@H](C)CC)C(C)C)C(C)C	12.5 µg/mL (≈ 7.79 µM)	> 100 µg/mL	> 100 µg/mL	> 100 µg/mL	> 100 µg/mL	> 100 µg/mL	> 100 µg/mL	> 100 µg/mL	> 100 µg/mL	> 100 µg/mL
CCCCCCCCCCCCCCCC(=O)N[C@@H](C(=O)N[C@H](CCN)C(=O)NCC(=O)N[C@H](CO)C(=O)N[C@H](Cc1c[nH]c2ccccc12)C(=O)N[C@@H](CO)C(=O)N[C@@H](CCN)C(=O)N[C@H](CCN)C(=O)N[C@@H](Cc1ccccc1)C(=O)N[C@@H](CCC(=O)O)C(=O)N[C@H](C(=O)N[C@@H](C(=O)N[C@@H](C)C(=O)O)[C@@H](C)CC)C(C)C)C(C)C	50 µg/mL (≈ 30.6 µM)	> 100 µg/mL	> 100 µg/mL	> 100 µg/mL	> 100 µg/mL	> 100 µg/mL	> 100 µg/mL	> 100 µg/mL	> 100 µg/mL	> 100 µg/mL
CC[C@H](C)[C@@H](NC(=O)[C@@H](NC(=O)[C@H](CCC(=O)O)NC(=O)[C@H](Cc1ccccc1)NC(=O)[C@@H](CCN)NC(=O)[C@H](CCN)NC(=O)[C@H](CO)NC(=O)[C@@H](Cc1c[nH]c2ccccc12)NC(=O)[C@@H](CO)NC(=O)CNC(=O)[C@@H](CCN)NC(=O)[C@H](NC(=O)CC12CC3CC(CC(C3)C1)C2)C(C)C)C(C)C)C(=O)N[C@@H](C)C(=O)O	1.56 µg/mL (≈ 0.993 µM)	25 µg/mL (≈ 15.9 µM)	50 µg/mL (≈ 31.8 µM)	50 µg/mL (≈ 31.8 µM)	12.5 µg/mL (≈ 7.96 µM)	50 µg/mL (≈ 31.8 µM)	6.25 µg/mL (≈ 3.98 µM)	50 µg/mL (≈ 31.8 µM)	6.25 µg/mL (≈ 3.98 µM)	12.5 µg/mL (≈ 7.96 µM)
CC[C@H](C)[C@@H](NC(=O)[C@@H](NC(=O)[C@H](CCC(=O)O)NC(=O)[C@H](Cc1ccccc1)NC(=O)[C@@H](CCN)NC(=O)[C@H](CCN)NC(=O)[C@H](CO)NC(=O)[C@@H](Cc1c[nH]c2ccccc12)NC(=O)[C@@H](CO)NC(=O)CNC(=O)[C@@H](CCN)NC(=O)[C@H](NC(=O)COCCOCCOC)C(C)C)C(C)C)C(=O)N[C@@H](C)C(=O)O	> 100 µg/mL	> 100 µg/mL	> 100 µg/mL	> 100 µg/mL	> 100 µg/mL	> 100 µg/mL	> 100 µg/mL	> 100 µg/mL	> 100 µg/mL	> 100 µg/mL
CC[C@H](C)[C@@H](NC(=O)[C@@H](NC(=O)[C@H](CCC(=O)O)NC(=O)[C@H](Cc1ccccc1)NC(=O)[C@@H](CCN)NC(=O)[C@H](CCN)NC(=O)[C@H](CO)NC(=O)[C@@H](Cc1c[nH]c2ccccc12)NC(=O)[C@@H](CO)NC(=O)CNC(=O)[C@@H](CCN)NC(=O)[C@H](NC(=O)CCCC[C@@H]1SC[C@@H]2NC(=O)N[C@@H]21)C(C)C)C(C)C)C(=O)N[C@@H](C)C(=O)O	50 µg/mL (≈ 30.8 µM)	> 100 µg/mL	> 100 µg/mL	> 100 µg/mL	50 µg/mL (≈ 30.8 µM)	> 100 µg/mL	50 µg/mL (≈ 30.8 µM)	> 100 µg/mL	50 µg/mL (≈ 30.8 µM)	> 100 µg/mL

The next lines start with the values.

MIC (Campylobacter jejuni)	MIC (Listeria monocytogenes)	MIC (Enterococcus faecium)	MIC (Enterococcus faecalis)	MIC (Klebsiella pneumoniae)	MIC (Pseudomonas aeruginosa)	MIC (Salmonella enterica)	MIC (Staphylococcus aureus)	MIC (Escherichia coli)	MIC (Acinetobacter baumannii)	Compound
1.56 µg/mL (≈ 1.01 µM)	100 µg/mL (≈ 64.5 µM)	> 100 µg/mL	> 100 µg/mL	6.25 µg/mL (≈ 4.03 µM)	50 µg/mL (≈ 32.2 µM)	6.25 µg/mL (≈ 4.03 µM)	> 100 µg/mL	6.25 µg/mL (≈ 4.03 µM)	25 µg/mL (≈ 16.1 µM)	CC[C@H](C)CC[C@H](O)CC(=O)N[C@@H](C(=O)N[C@H](CCN)C(=O)NCC(=O)N[C@H](CO)C(=O)N[C@H](Cc1c[nH]c2ccccc12)C(=O)N[C@@H](CO)C(=O)N[C@@H](CCN)C(=O)N[C@H](CCN)C(=O)N[C@@H](Cc1ccccc1)C(=O)N[C@@H](CCC(=O)O)C(=O)N[C@H](C(=O)N[C@@H](C(=O)N[C@@H](C)C(=O)O)[C@@H](C)CC)C(C)C)C(C)C
1.56 µg/mL (≈ 1.04 µM)	50 µg/mL (≈ 33.2 µM)	> 100 µg/mL	> 100 µg/mL	6.25 µg/mL (≈ 4.15 µM)	50 µg/mL (≈ 33.2 µM)	12.5 µg/mL (≈ 8.3 µM)	> 100 µg/mL	6.25 µg/mL (≈ 4.15 µM)	12.5 µg/mL (≈ 8.3 µM)	CCCCCCC(=O)N[C@@H](C(=O)N[C@H](CCN)C(=O)NCC(=O)N[C@H](CO)C(=O)N[C@H](Cc1c[nH]c2ccccc12)C(=O)N[C@@H](CO)C(=O)N[C@@H](CCN)C(=O)N[C@H](CCN)C(=O)N[C@@H](Cc1ccccc1)C(=O)N[C@@H](CCC(=O)O)C(=O)N[C@H](C(=O)N[C@@H](C(=O)N[C@@H](C)C(=O)O)[C@@H](C)CC)C(C)C)C(C)C
0.78 µg/mL (≈ 0.508 µM)	25 µg/mL (≈ 16.3 µM)	100 µg/mL (≈ 65.2 µM)	100 µg/mL (≈ 65.2 µM)	12.5 µg/mL (≈ 8.14 µM)	100 µg/mL (≈ 65.2 µM)	6.25 µg/mL (≈ 4.07 µM)	100 µg/mL (≈ 65.2 µM)	12.5 µg/mL (≈ 8.14 µM)	50 µg/mL (≈ 32.6 µM)	CCCCCCCCC(=O)N[C@@H](C(=O)N[C@H](CCN)C(=O)NCC(=O)N[C@H](CO)C(=O)N[C@H](Cc1c[nH]c2ccccc12)C(=O)N[C@@H](CO)C(=O)N[C@@H](CCN)C(=O)N[C@H](CCN)C(=O)N[C@@H](Cc1ccccc1)C(=O)N[C@@H](CCC(=O)O)C(=O)N[C@H](C(=O)N[C@@H](C(=O)N[C@@H](C)C(=O)O)[C@@H](C)CC)C(C)C)C(C)C
0.4 µg/mL (≈ 0.258 µM)	25 µg/mL (≈ 16.1 µM)	100 µg/mL (≈ 64.6 µM)	> 100 µg/mL	6.25 µg/mL (≈ 4.04 µM)	> 100 µg/mL	12.5 µg/mL (≈ 8.07 µM)	> 100 µg/mL	6.25 µg/mL (≈ 4.04 µM)	12.5 µg/mL (≈ 8.07 µM)	CCCCCCCCCC(=O)N[C@@H](C(=O)N[C@H](CCN)C(=O)NCC(=O)N[C@H](CO)C(=O)N[C@H](Cc1c[nH]c2ccccc12)C(=O)N[C@@H](CO)C(=O)N[C@@H](CCN)C(=O)N[C@H](CCN)C(=O)N[C@@H](Cc1ccccc1)C(=O)N[C@@H](CCC(=O)O)C(=O)N[C@H](C(=O)N[C@@H](C(=O)N[C@@H](C)C(=O)O)[C@@H](C)CC)C(C)C)C(C)C
0.4 µg/mL (≈ 0.256 µM)	25 µg/mL (≈ 16 µM)	100 µg/mL (≈ 64 µM)	> 100 µg/mL	6.25 µg/mL (≈ 4 µM)	> 100 µg/mL	12.5 µg/mL (≈ 8 µM)	> 100 µg/mL	6.25 µg/mL (≈ 4 µM)	12.5 µg/mL (≈ 8 µM)	CCCCCCCCCCC(=O)N[C@@H](C(=O)N[C@H](CCN)C(=O)NCC(=O)N[C@H](CO)C(=O)N[C@H](Cc1c[nH]c2ccccc12)C(=O)N[C@@H](CO)C(=O)N[C@@H](CCN)C(=O)N[C@H](CCN)C(=O)N[C@@H](Cc1ccccc1)C(=O)N[C@@H](CCC(=O)O)C(=O)N[C@H](C(=O)N[C@@H](C(=O)N[C@@H](C)C(=O)O)[C@@H](C)CC)C(C)C)C(C)C
1.56 µg/mL (≈ 0.966 µM)	100 µg/mL (≈ 61.9 µM)	> 100 µg/mL	> 100 µg/mL	100 µg/mL (≈ 61.9 µM)	> 100 µg/mL	> 100 µg/mL	> 100 µg/mL	6.25 µg/mL (≈ 3.87 µM)	> 100 µg/mL	CC[C@H](C)[C@@H](NC(=O)[C@@H](NC(=O)[C@H](CCC(=O)O)NC(=O)[C@H](Cc1ccccc1)NC(=O)[C@@H](CCN)NC(=O)[C@H](CCN)NC(=O)[C@H](CO)NC(=O)[C@@H](Cc1c[nH]c2ccccc12)NC(=O)[C@@H](CO)NC(=O)CNC(=O)[C@@H](CCN)NC(=O)[C@H](NC(=O)CCC1c2ccccc2-c2ccccc21)C(C)C)C(C)C)C(=O)N[C@@H](C)C(=O)O
1.56 µg/mL (≈ 0.959 µM)	50 µg/mL (≈ 30.7 µM)	> 100 µg/mL	> 100 µg/mL	12.5 µg/mL (≈ 7.68 µM)	> 100 µg/mL	12.5 µg/mL (≈ 7.68 µM)	> 100 µg/mL	6.25 µg/mL (≈ 3.84 µM)	25 µg/mL (≈ 15.4 µM)	CC[C@H](C)[C@@H](NC(=O)[C@@H](NC(=O)[C@H](CCC(=O)O)NC(=O)[C@H](Cc1ccccc1)NC(=O)[C@@H](CCN)NC(=O)[C@H](CCN)NC(=O)[C@H](CO)NC(=O)[C@@H](Cc1c[nH]c2ccccc12)NC(=O)[C@@H](CO)NC(=O)CNC(=O)[C@@H](CCN)NC(=O)[C@H](NC(=O)CCc1c2ccccc2cc2ccccc12)C(C)C)C(C)C)C(=O)N[C@@H](C)C(=O)O

From ChEMBL document CHEMBL3112395, “Synthesis and structure-activity relationship studies of N-terminal analogues of the antimicrobial peptide tridecaptin A(1)” (J Med Chem, 2014)
